≈ marks a conversion by molar mass, not a printed value.
Assays:
Assay type in all cases: biochemical
[1] = biological target: T1, DNA topoisomerase I (Human Top I) (Homo sapiens, UniProt P11387); test: pBR322 supercoiled DNA relaxation assay, agarose gel ([…])
T1 construct: gene TOP1
T1 sequence (P11387 2-765): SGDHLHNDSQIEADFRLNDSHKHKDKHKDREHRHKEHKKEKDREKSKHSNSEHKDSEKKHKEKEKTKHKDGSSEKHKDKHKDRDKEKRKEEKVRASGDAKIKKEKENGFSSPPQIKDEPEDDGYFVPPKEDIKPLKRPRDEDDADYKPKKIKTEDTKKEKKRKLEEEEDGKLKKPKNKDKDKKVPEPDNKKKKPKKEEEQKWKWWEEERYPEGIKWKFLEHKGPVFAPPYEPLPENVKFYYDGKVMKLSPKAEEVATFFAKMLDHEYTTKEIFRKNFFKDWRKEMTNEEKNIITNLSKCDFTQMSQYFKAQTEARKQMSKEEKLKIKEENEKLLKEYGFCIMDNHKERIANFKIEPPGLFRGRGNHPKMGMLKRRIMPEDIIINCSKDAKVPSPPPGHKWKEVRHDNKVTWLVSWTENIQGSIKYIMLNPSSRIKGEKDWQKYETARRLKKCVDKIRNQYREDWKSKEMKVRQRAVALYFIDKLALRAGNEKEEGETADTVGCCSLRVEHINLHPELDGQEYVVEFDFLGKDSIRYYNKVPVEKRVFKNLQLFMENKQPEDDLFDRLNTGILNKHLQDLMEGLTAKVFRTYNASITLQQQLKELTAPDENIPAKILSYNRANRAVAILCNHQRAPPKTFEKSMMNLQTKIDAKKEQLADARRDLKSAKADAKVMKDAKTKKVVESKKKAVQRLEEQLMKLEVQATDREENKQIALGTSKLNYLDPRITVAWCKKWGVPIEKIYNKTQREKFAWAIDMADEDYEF

α-amylase = test: colorimetric starch/DNS enzyme assay
α-glucosidase = test: colorimetric pNPG enzyme assay

`CCCC(O)c1coc(=O)c(C)c1OC` (stereo not drawn) [C-HMMP, 5-(1-hydroxybutyl)-4-methoxy-3-methyl-2H-pyran-2-one] was tested, and the “pBR322 supercoiled DNA relaxation assay, agarose gel (50, 150, 250 μg/ml)” value [1] was ~ 250 μg/ml, the IC50 (α-amylase) was 118.6 µg/mL (≈ 559 µM) and the IC50 (α-glucosidase) was 144.7 µg/mL (≈ 682 µM).

— paper PMC10333465, “Multi-Function of a New Bioactive Secondary Metabolite Derived from Endophytic Fungus Colletotrichum acutatum of Angelica sinensis” (Journal of Microbiology and Biotechnology, 2022)
